Molecular target: T1, human V1a receptor (Homo sapiens, UniProt P37288)
T1 construct: expressed in transfected cells; host or cells: HEK293 cells, transiently transfected; cell membranes
Test: human V1a receptor binding studies (3H-Vasopressin, SPA beads)
Settings: membranes of HEK293 cells transiently transfected with human V1a receptor, Ki by Cheng-Prussoff from IC50, read-out: pKi hV1a (converted)
Protocol: The human V1a receptor was cloned by RT-PCR from total human liver RNA. The coding sequence was subcloned in an expression vector after sequencing to confirm the identity of the amplified sequence. […] Cell membranes were prepared from HEK293 cells transiently transfected with the expression vector and grown in 20 liter fermenters with the following protocol.
50 g of cells are re-suspended in 30 ml freshly prepared ice cold Lysis buffer (50 mM HEPES, 1 mM EDTA, 10 mM MgCl2 adjusted to pH=7.4+complete cocktail of protease inhibitor (Roche Diagnostics)). Homogenized with Polytron for 1 min and sonicated on ice for 2×2 minutes at 80% intensity (Vibracell sonicator). The preparation is centrifuged 20 min at 500 g at 4° C., the pellet is discarded and the supernatant centrifuged 1 hour at 43′000 g at 4° C. (19′000 rpm). The pellet is re-suspended in 12.5 ml Lysis buffer+12.5 ml Sucrose 20% and homogenized using a Polytron for 1-2 min. The protein concentration is determined by the Bradford method and aliquots are stored at −80° C. until use. For binding studies 60 mg Yttrium silicate SPA beads (Amersham) are mixed with an aliquot of membrane in binding buffer (50 mM Tris, 120 mM NaCl, 5 mM KCl, 2 mM CaCl2, 10 mM MgCl2) for 15 minutes with mixing. 50 μl of bead/membrane mixture is then added to each well of a 96 well plate, followed by 50 μl of 4 nM 3H-Vasopressin (American Radiolabeled Chemicals). For total binding measurement 100 μl of binding buffer are added to the respective wells, for non-specific binding 100 μl of […] cold vasopressin and for compound testing 100 μl of a serial dilution of each compound in 2% DMSO. The plate is incubated 1 h at room temperature, centrifuged 1 min at 1000 g and counted on a Packard Top-Count. Non-specific binding counts are subtracted from each well and data is normalized to the maximum specific binding set at 100%. To calculate an IC 50 the curve is fitted using a non-linear regression model (XLfit) and the Ki is calculated using the Cheng-Prussoff equation.

T1 sequence (P37288 whole entry): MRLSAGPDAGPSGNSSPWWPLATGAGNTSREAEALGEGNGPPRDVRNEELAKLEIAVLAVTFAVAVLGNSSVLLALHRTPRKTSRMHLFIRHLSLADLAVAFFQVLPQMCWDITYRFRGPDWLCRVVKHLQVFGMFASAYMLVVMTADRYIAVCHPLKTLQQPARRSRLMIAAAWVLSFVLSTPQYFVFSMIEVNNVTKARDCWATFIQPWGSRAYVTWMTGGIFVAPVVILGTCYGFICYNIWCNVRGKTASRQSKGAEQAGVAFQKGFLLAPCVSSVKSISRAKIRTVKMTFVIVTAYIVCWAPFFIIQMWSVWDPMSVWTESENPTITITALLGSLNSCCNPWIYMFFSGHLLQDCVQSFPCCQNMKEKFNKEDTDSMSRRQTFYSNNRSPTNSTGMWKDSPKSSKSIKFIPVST

Ki | SMILES
0.0316 µM | O=C1N=C(N2CCC3(CC2)OCc2ccccc23)OC1C(O)c1ccccc1 (single isomer, unassigned) [Example 36, 5-(Hydroxy(phenyl)methyl)-2-(1′H,3H-spiro[2-benzofuran-1,4′-piperidin]-1′-yl)-1,3-oxazol-4(5H)-one diastereomer a, enantiomer A]
0.126 µM | O=C1N=C(N2CCC3(CC2)OCc2ccccc23)OC1C(O)c1ccccc1 (single isomer, unassigned) [Example 37, 5-(Hydroxy(phenyl)methyl)-2-(1′H,3H-spiro[2-benzofuran-1,4′-piperidin]-1′-yl)-1,3-oxazol-4(5H)-one diastereomer a, enantiomer B]
0.794 µM | O=C1N=C(N2CCC3(CC2)OCc2ccccc23)OC1C(O)c1ccccc1 (single isomer, unassigned) [Example 38, 5-(Hydroxy(phenyl)methyl)-2-(1′H,3H-spiro[2-benzofuran-1,4′-piperidin]-1′-yl)-1,3-oxazol-4(5H)-one diastereomer b, enantiomer A]
0.126 µM | O=C1N=C(N2CCC3(CC2)OCc2ccccc23)OC1C(O)c1ccccc1 (single isomer, unassigned) [Example 39, 5-(Hydroxy(phenyl)methyl)-2-(1′H,3H-spiro[2-benzofuran-1,4′-piperidin]-1′-yl)-1,3-oxazol-4(5H)-one diastereomer b, enantiomer B]
0.0316 µM | O=C1N=C(N2CCC3(CC2)OCc2ccccc23)OC1C(F)c1ccc(Cl)cc1 (single isomer, unassigned) [Example 46, 5-((4-Chlorophenyl)fluoromethyl)-2-(1′H,3H-spiro[2-benzofuran-1,4′-piperidin]-1′-yl)-1,3-oxazol-4(5H)-one diastereomer a, enantiomer A]
0.02 µM | O=C1N=C(N2CCC3(CC2)OCc2ccccc23)OC1C(F)c1ccc(Cl)cc1 (single isomer, unassigned) [Example 47, 5-((4-Chlorophenyl)fluoromethyl)-2-(1′H,3H-spiro[2-benzofuran-1,4′-piperidin]-1′-yl)-1,3-oxazol-4(5H)-one diastereomer a, enantiomer B]
0.0398 µM | O=C1N=C(N2CCC3(CC2)OCc2ccccc23)OC1C(F)c1ccc(Cl)cc1 (single isomer, unassigned) [Example 48, 5-((4-Chlorophenyl)fluoromethyl)-2-(1′H,3H-spiro[2-benzofuran-1,4′-piperidin]-1′-yl)-1,3-oxazol-4(5H)-one diastereomer b, enantiomer A]
0.002 µM | O=C1N=C(N2CCC3(CC2)OCc2ccccc23)OC1C(F)c1ccc(Cl)cc1 (single isomer, unassigned) [Example 49, 5-((4-Chlorophenyl)fluoromethyl)-2-(1′H,3H-spiro[2-benzofuran-1,4′-piperidin]-1′-yl)-1,3-oxazol-4(5H)-one diastereomer b, enantiomer B]
0.02 µM | O=C1OC2(CCN(C3=NC(=O)C(C(O)c4ccc(Cl)cc4)O3)CC2)c2ccccc21 (single isomer, unassigned) [Example 50, 1′-{-5-[(4-Chlorophenyl)(hydroxy)methyl]-4-oxo-4,5-dihydro-1,3-oxazol-2-yl}-3H-spiro[2-benzofuran-1,4′-piperidin]-3-one diastereomer a, enantiomer A]
0.158 µM | O=C1OC2(CCN(C3=NC(=O)C(C(O)c4ccc(Cl)cc4)O3)CC2)c2ccccc21 (single isomer, unassigned) [Example 51, 1′-{-5-[(4-Chlorophenyl)(hydroxy)methyl]-4-oxo-4,5-dihydro-1,3-oxazol-2-yl}-3H-spiro[2-benzofuran-1,4′-piperidin]-3-one diastereomer a, enantiomer B]
0.631 µM | O=C1OC2(CCN(C3=NC(=O)C(C(O)c4ccc(Cl)cc4)O3)CC2)c2ccccc21 (single isomer, unassigned) [Example 52, 1′-{-5-[(4-Chlorophenyl)(hydroxy)methyl]-4-oxo-4,5-dihydro-1,3-oxazol-2-yl}-3H-spiro[2-benzofuran-1,4′-piperidin]-3-one diastereomer b, enantiomer A]

Source: patent US9828385B2, “Spiro-oxazolones” (Hoffmann-La Roche Inc., priority 2014, dated 2017)
